Reference: paper PMC10759932 (Nature cell biology, 2023)

Columns and labels:
PcaK = target: T1, PcaK (Pseudomonas putida, UniProt Q51955); experiment: radiolabelled uptake into E. coli cells; assay type: cell-based; conditions: 50 μM 4-HB; whole E. coli cells; labelled compound
T1 sequence (Q51955 1-448): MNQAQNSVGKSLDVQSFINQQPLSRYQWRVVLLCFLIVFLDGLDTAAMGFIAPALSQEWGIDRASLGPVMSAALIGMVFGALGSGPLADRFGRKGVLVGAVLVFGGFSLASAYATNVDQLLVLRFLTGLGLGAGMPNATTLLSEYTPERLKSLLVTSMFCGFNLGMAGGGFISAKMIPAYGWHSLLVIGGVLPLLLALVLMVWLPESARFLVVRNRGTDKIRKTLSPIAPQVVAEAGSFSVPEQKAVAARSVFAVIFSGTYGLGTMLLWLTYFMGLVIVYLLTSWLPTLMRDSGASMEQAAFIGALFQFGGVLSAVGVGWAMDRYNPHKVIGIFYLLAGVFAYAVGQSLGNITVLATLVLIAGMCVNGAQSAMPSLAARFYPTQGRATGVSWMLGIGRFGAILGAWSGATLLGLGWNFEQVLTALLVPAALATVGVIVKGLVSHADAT

S. pombe Hem25p = S. pombe Hem25p (Schizosaccharomyces pombe, UniProt Q9P6N6); conditions: whole E. coli cells; labelled compound
Sequence of S. pombe Hem25p (Q9P6N6 whole entry): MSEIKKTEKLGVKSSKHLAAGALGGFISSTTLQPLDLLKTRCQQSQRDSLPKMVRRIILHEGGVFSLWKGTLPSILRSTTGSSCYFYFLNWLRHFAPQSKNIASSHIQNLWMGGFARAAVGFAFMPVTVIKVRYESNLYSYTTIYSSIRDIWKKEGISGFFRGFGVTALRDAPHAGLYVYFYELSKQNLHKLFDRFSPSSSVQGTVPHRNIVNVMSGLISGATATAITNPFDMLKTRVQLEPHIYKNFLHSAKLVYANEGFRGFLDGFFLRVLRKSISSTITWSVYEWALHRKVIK

| radiolabelled uptake into E. coli cells (S. pombe Hem25p) | SMILES | radiolabelled uptake into E. coli cells (PcaK) |
| --- | --- | --- |
|  | O=C(O)c1ccc(O)cc1 [4-HB] | Uptake of 4-HB was only seen when the known bacterial 4-HB transporter PcaK was expressed |
| Hem25p from S. pombe and S. cerevisiae | C=C(C)CCOP(=O)(O)OP(=O)(O)O [IPP] |  |
